According to patent publication US11608335B2, “Somatostatin modulators and uses thereof” (CRINETICS PHARMACEUTICALS, INC., priority 2018, dated 2023):

Biological target: human somatostatin receptor subtype 5 (Homo sapiens, UniProt P35346)
Assay: cAMP assay for SST5R (inhibition of cAMP via human SST5 receptor)

human somatostatin receptor subtype 5, sequence (P35346 whole entry): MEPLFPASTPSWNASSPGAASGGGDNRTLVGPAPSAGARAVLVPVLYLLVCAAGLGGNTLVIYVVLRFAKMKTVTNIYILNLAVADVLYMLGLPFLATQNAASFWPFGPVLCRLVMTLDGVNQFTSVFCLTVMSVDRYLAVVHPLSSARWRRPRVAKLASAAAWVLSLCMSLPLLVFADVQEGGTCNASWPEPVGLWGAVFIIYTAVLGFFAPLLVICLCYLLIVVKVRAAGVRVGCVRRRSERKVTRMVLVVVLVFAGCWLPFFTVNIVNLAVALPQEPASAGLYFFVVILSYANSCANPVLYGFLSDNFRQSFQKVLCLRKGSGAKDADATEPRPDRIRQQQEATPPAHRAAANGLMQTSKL

EC50 [nM]	Fold selectivity for SST5 vs SST2 (SST5 over SST2, class symbols)	SMILES
10 to 100		Cc1ccc(F)c(-c2cncc(-c3nc4cc(F)cc(F)c4[nH]3)c2N2CC(CN)C2)c1 [Compound 1-45, 1-{1-[3-(4,6-difluoro-1H-1,3-benzodiazol-2-yl)-5-(2-fluoro-5-methylphenyl)pyridin-4-yl]azetidin-3-yl}methanamine]
10 to 100		Cc1ccc(F)cc1-c1cncc(-c2nc3cc(F)cc(F)c3[nH]2)c1N1CC(CN)C1 [Compound 1-46, 1-{1-[3-(4,6-difluoro-1H-1,3-benzodiazol-2-yl)-5-(5-fluoro-2-methylphenyl)pyridin-4-yl]azetidin-3-yl}methanamine]
< 10		Cc1cc(-c2cncc(-c3nc4cc(F)cc(F)c4[nH]3)c2N2CC(CN)C2)ccc1F [Compound 1-47, 1-{1-[3-(4,6-difluoro-1H-1,3-benzodiazol-2-yl)-5-(4-fluoro-3-methylphenyl)pyridin-4-yl]azetidin-3-yl}methanamine]
< 10		NCC1CN(c2c(-c3cc(F)c(F)c(F)c3)cncc2-c2nc3cc(F)cc(F)c3[nH]2)C1 [Compound 1-48, 1-{1-[3-(4,6-difluoro-1H-1,3-benzodiazol-2-yl)-5-(3,4,5-trifluorophenyl)pyridin-4-yl]azetidin-3-yl}methanamine]
< 10		Cc1cc(F)cc(-c2cncc(-c3nc4cc(F)cc(F)c4[nH]3)c2N2CC(C(N)CO)C2)c1 (stereo not drawn) [Compound 1-49, 2-Amino-2-{1-[3-(4,6-difluoro-1H-1,3-benzodiazol-2-yl)-5-(3-fluoro-5-methylphenyl)pyridin-4-yl]azetidin-3-yl}ethan-1-ol]
< 10		Cc1cc(F)cc(-c2cncc(-c3nc4c(F)cc(F)cc4[nH]3)c2N2CC(C)(CN)C2)c1 [Compound 1-50, 1-{1-[3-(4,6-difluoro-1H-1,3-benzodiazol-2-yl)-5-(3-fluoro-5-methylphenyl)pyridin-4-yl]-3-methylazetidin-3-yl}methanamine]
10 to 100		NCC1CN(c2c(-c3nc4cc(F)cc(F)c4[nH]3)cncc2-c2cccc3ccccc23)C1 [Compound 1-52, 1-{1-[3-(4,6-difluoro-1H-1,3-benzodiazol-2-yl)-5-(naphthalen-1-yl)pyridin-4-yl]azetidin-3-yl}methanamine]
< 10		NCC1CN(c2c(-c3cccc(Cl)c3)cncc2-c2nc3c(F)cc(F)cc3[nH]2)C1 [Compound 1-53, 1-{1-[3-(3-chlorophenyl)-5-(4,6-difluoro-1H-1,3-benzodiazol-2-yl)pyridin-4-yl]azetidin-3-yl}methanamine]
< 10		N#Cc1cccc(-c2cncc(-c3nc4c(F)cc(F)cc4[nH]3)c2N2CC(CN)C2)c1 [Compound 1-54, 3-{4-[3-(aminomethyl)azetidin-1-yl]-5-(4,6-difluoro-1H-1,3-benzodiazol-2-yl)pyridin-3-yl}benzonitrile]
10 to 100		Cc1ccc(-c2cncc(-c3nc4cc(F)cc(F)c4[nH]3)c2N2CC(CN)C2)cc1F [Compound 1-55, 1-{1-[3-(4,6-difluoro-1H-1,3-benzodiazol-2-yl)-5-(3-fluoro-4-methylphenyl)pyridin-4-yl]azetidin-3-yl}methanamine]
> 1000		Cc1cc(F)cc(-c2cncc(-c3ncc[nH]3)c2N2CC(CN)C2)c1 [Compound 1-56, 1-{1-[3-(3-fluoro-5-methylphenyl)-5-(1H-imidazol-2-yl)pyridin-4-yl]azetidin-3-yl}methanamine]
10 to 100		NCC1CN(c2c(-c3nc4cc(F)cc(F)c4[nH]3)cncc2-c2cccc(Cl)c2F)C1 [Compound 1-57, 1-{1-[3-(3-chloro-2-fluorophenyl)-5-(4,6-difluoro-1H-1,3-benzodiazol-2-yl)pyridin-4-yl]azetidin-3-yl}methanamine]
< 10		COc1cc(F)cc(-c2cncc(-c3nc4cc(F)cc(F)c4[nH]3)c2N2CC(CN)C2)c1 [Compound 1-58, 1-{1-[3-(4,6-difluoro-1H-1,3-benzodiazol-2-yl)-5-(3-fluoro-5-methoxyphenyl)pyridin-4-yl]azetidin-3-yl}methanamine]
< 10		COc1cc(Cl)cc(-c2cncc(-c3nc4c(F)cc(F)cc4[nH]3)c2N2CC(CN)C2)c1 [Compound 1-59, 1-{1-[3-(3-chloro-5-methoxyphenyl)-5-(4,6-difluoro-1H-1,3-benzodiazol-2-yl)pyridin-4-yl]azetidin-3-yl}methanamine]
< 10		NCC1CN(c2c(-c3cc(Cl)cc(Cl)c3)cncc2-c2nc3cc(F)cc(F)c3[nH]2)C1 [Compound 1-60, 1-{1-[3-(3,5-dichlorophenyl)-5-(4,6-difluoro-1H-1,3-benzodiazol-2-yl)pyridin-4-yl]azetidin-3-yl}methanamine]
< 10		NCC1(F)CN(c2c(-c3cc(F)cc(Cl)c3)cncc2-c2nc3cc(F)cc(F)c3[nH]2)C1 [Compound 1-62, 1-{1-[3-(3-chloro-5-fluorophenyl)-5-(4,6-difluoro-1H-1,3-benzodiazol-2-yl)pyridin-4-yl]-3-fluoroazetidin-3-yl}methanamine]
< 10		CC(N)C1CN(c2c(-c3cc(F)cc(C(F)(F)F)c3)cncc2-c2nc3c(F)cc(F)cc3[nH]2)C1 (stereo not drawn) [Compound 1-63, 1-{1-[3-(4,6-difluoro-1H-1,3-benzodiazol-2-yl)-5-[3-fluoro-5-(trifluoromethyl)phenyl]pyridin-4-yl]azetidin-3-yl}ethan-1-amine]

EC50 [nM]	Fold selectivity for SST5 vs SST2 (SST5 over SST2, class symbols)	SMILES
10 to 100		Cc1c(Cl)cccc1-c1cncc(-c2nc3cc(F)cc(F)c3[nH]2)c1N1CC(CN)C1 [Compound 1-66, 1-{1-[3-(3-chloro-2-methylphenyl)-5-(4,6-difluoro-1H-1,3-benzodiazol-2-yl)pyridin-4-yl]azetidin-3-yl}methanamine]
100 to 1000		Cc1cccc(-c2cncc(-c3nc4cc(F)cc(F)c4[nH]3)c2N2CC(CN)C2)c1F [Compound 1-67, 1-{1-[3-(4,6-difluoro-1H-1,3-benzodiazol-2-yl)-5-(2-fluoro-3-methylphenyl)pyridin-4-yl]azetidin-3-yl}methanamine]
10 to 100		CCOc1ccc(-c2cncc(-c3nc4c(F)cc(F)cc4[nH]3)c2N2CC(C(C)N)C2)cc1F (stereo not drawn) [Compound 1-72, 1-{1-[3-(4,6-difluoro-1H-1,3-benzodiazol-2-yl)-5-(4-ethoxy-3-fluorophenyl)pyridin-4-yl]azetidin-3-yl}ethan-1-amine]
< 10		COc1c(F)cccc1-c1cncc(-c2nc3cc(F)cc(F)c3[nH]2)c1N1CC(C(C)N)C1 (stereo not drawn) [Compound 1-73, 1-{1-[3-(4,6-difluoro-1H-1,3-benzodiazol-2-yl)-5-(3-fluoro-2-methoxyphenyl)pyridin-4-yl]azetidin-3-yl}ethan-1-amine]
< 10		CC(N)C1CN(c2c(-c3nc4cc(F)cc(F)c4[nH]3)cncc2-c2cccc(F)c2Cl)C1 (stereo not drawn) [Compound 1-74, 1-{1-[3-(2-chloro-3-fluorophenyl)-5-(4,6-difluoro-1H-1,3-benzodiazol-2-yl)pyridin-4-yl]azetidin-3-yl}ethan-1-amine]
10 to 100		CC(N)C1CN(c2c(-c3nc4cc(F)cc(F)c4[nH]3)cncc2-c2cccc(F)c2O)C1 (stereo not drawn) [Compound 1-75, 2-{4-[3-(1-aminoethyl)azetidin-1-yl]-5-(4,6-difluoro-1H-1,3-benzodiazol-2-yl)pyridin-3-yl}-6-fluorophenol]
< 10		Cc1cccc(-c2cncc(-c3nc4cc(F)cc(F)c4[nH]3)c2N2CC(C(C)N)C2)c1F (stereo not drawn) [Compound 1-76, 1-{1-[3-(4,6-difluoro-1H-1,3-benzodiazol-2-yl)-5-(2-fluoro-3-methylphenyl)pyridin-4-yl]azetidin-3-yl}ethan-1-amine]
10 to 100		N#Cc1cc(Cl)cc(-c2cncc(-c3nc4cccc(F)c4[nH]3)c2N2CC[C@H](N)C2)c1 [Compound 2-5, 3-{4-[(3S)-3-aminopyrrolidin-1-yl]-5-(4-fluoro-1H-1,3-benzodiazol-2-yl)pyridin-3-yl}-5-chlorobenzonitrile]
10 to 100		CON=Cc1cc(F)cc(-c2cncc(-c3nc4c(F)cccc4[nH]3)c2N2CC[C@H](N)C2)c1 [Compound 2-9, (3S)-1-[3-(4-fluoro-1H-1,3-benzodiazol-2-yl)-5-{3-fluoro-5-[(methoxyimino)methyl]phenyl}pyridin-4-yl]pyrrolidin-3-amine]
	+++ (+++=≥500)	COc1cccc(-c2cncc(-c3nc4cccc(F)c4[nH]3)c2N2CCC(C)(N)C2)c1 (stereo not drawn) [Compound 2-11, 1-[3-(4-fluoro-1H-1,3-benzodiazol-2-yl)-5-(3-methoxyphenyl)pyridin-4-yl]-3-methylpyrrolidin-3-amine]
10 to 100		CO/N=C/c1cccc(-c2cncc(-c3nc4cccc(F)c4[nH]3)c2N2CC[C@H](N)C2)c1 [Compound 2-12, (3S)-1-[3-(4-fluoro-1H-1,3-benzodiazol-2-yl)-5-{3-[(methoxyimino)methyl]phenyl}pyridin-4-yl]pyrrolidin-3-amine]
100 to 1000		CN(C)c1ccc(-c2cncc(-c3nc4cccc(F)c4[nH]3)c2N2CCC(C)(N)C2)cn1 (stereo not drawn) [Compound 2-14, 4′-(3-amino-3-methylpyrrolidin-1-yl)-5′-(4-fluoro-1H-1,3-benzodiazol-2-yl)-N,N-dimethyl-[3,3′-bipyridin]-6-amine]
10 to 100		CC1(N)CCN(c2c(-c3ccnc(N)c3)cncc2-c2nc3cccc(F)c3[nH]2)C1 (stereo not drawn) [Compound 2-15, 4-(3-amino-3-methylpyrrolidin-1-yl)-5-(4-fluoro-1H-1,3-benzodiazol-2-yl)-[3,4′-bipyridin]-2′-amine]
10 to 100		CC1(N)CCN(c2c(-c3cccc(-n4cccn4)c3)cncc2-c2nc3cccc(F)c3[nH]2)C1 (stereo not drawn) [Compound 2-16, 1-[3-(4-fluoro-1H-1,3-benzodiazol-2-yl)-5-[3-(1H-pyrazol-1-yl)phenyl]pyridin-4-yl]-3-methylpyrrolidin-3-amine]
10 to 100		CC1(N)CCN(c2c(-c3cccc(N4CCOC4=O)c3)cncc2-c2nc3cccc(F)c3[nH]2)C1 (stereo not drawn) [Compound 2-17, 3-{3-[4-(3-amino-3-methylpyrrolidin-1-yl)-5-(4-fluoro-1H-1,3-benzodiazol-2-yl)pyridin-3-yl]phenyl}-1,3-oxazolidin-2-one]
10 to 100		CNC(=O)c1cccc(-c2cncc(-c3nc4cccc(F)c4[nH]3)c2N2CCC(C)(N)C2)c1 (stereo not drawn) [Compound 2-19, 3-[4-(3-amino-3-methylpyrrolidin-1-yl)-5-(4-fluoro-1H-1,3-benzodiazol-2-yl)pyridin-3-yl]-N-methylbenzamide]
